Test results: patent publication US11286273B2, “Rhamnolipid compounds and use thereof” (KOREA INSTITUTE OF OCEAN SCIENCE & TECHNOLOGY, priority 2019, dated 2022)

Legend:
Assay type in all cases: cell-based
NCI-H23 = experiment: SRB growth inhibition, NCI-H23 (liver cancer); conditions: Homo sapiens, NCI-H23, 48 hours
Description: (§1) Human cancer cell lines HCT-15 (colon cancer), NUGC-3 (gastric cancer), NCI-H23 (liver cancer), ACHN (kidney cancer), PC-3 (prostate cancer) and MDA-MB-231 (breast cancer) were purchased from American Type Culture Collection (Manassas, Va.).
(§2) Cancer cell lines were cultured in RPMI 1640 supplemented with 10% fetal bovine serum (FBS) in a 5% CO2 humid atmosphere at 37° C. The evaluation of growth inhibitory ability against human cancer cell lines was performed via the Sulforhodamine B (SRB) method. The cells were dispensed into a 96-well plate at a density of 8,000 cells/well, and the next day, cells were treated with compounds 1 to 3 (0.1% DMSO as vehicle control), and treated with a positive control (adriamycin). After incubation for 48 hours, the culture fluid was fixed with 50% trichloroacetic acid ([…]) and stained with 0.4% sulforhodamine B contained in 1% acetic acid. The unbound dye was washed with 1% acetic acid, and the dye bound to the protein was extracted with 10 mM Tris base (pH 10.5) to determine the optical density. The absorbance at 540 nm was determined using a VersaMax microplate reader (Molecular Devices, LLC, Sunnyvale, Calif., USA). The GI50 values were calculated using GraphPad Prism 4.0 software (GraphPad Software, Inc., San Diego, Calif., USA) and shown in Table 3 below.

HCT-15 = experiment: SRB growth inhibition, HCT-15 (colon cancer); conditions: Homo sapiens, HCT-15, 48 hours
Description: as §1, §2

Human cancer cell lines = experiment: SRB growth inhibition, panel of six human cancer cell lines (summary); conditions: for GI50: Homo sapiens, range over the six cancer cell lines of Table 3
Description: as §1, §2

PC-3 = experiment: SRB growth inhibition, PC-3 (prostate cancer); conditions: Homo sapiens, PC-3, 48 hours
Description: as §1, §2

NUGC-3 = experiment: SRB growth inhibition, NUGC-3 (gastric cancer); conditions: Homo sapiens, NUGC-3, 48 hours
Description: as §1, §2

MDA-MB-231 = experiment: SRB growth inhibition, MDA-MB-231 (breast cancer); conditions: Homo sapiens, MDA-MB-231, 48 hours
Description: as §1, §2

ACHN = experiment: SRB growth inhibition, ACHN (kidney cancer); conditions: Homo sapiens, 48 hours
Description: as §1, §2

Row | SMILES | GI50 (NCI-H23) [µM] | GI50 (HCT-15) [µM] | GI50 (Human cancer cell lines) [µM] | activity against cancer cell lines (Human cancer cell lines; summary in words of Table 3) | GI50 (PC-3) [µM] | GI50 (NUGC-3) [µM] | GI50 (MDA-MB-231) [µM] | GI50 (ACHN) [µM]
1 | CC(=O)CCCCCCCCCCCCC[C@H](CC(=O)O)OC1OC(C)C(O)C(O)C1O (stereo in doubt) [Compound 2, 17-oxo-3-(3,4,5-trihydroxy-6-methyltetrahydro-2H-pyran-2-yloxy)octadecanoic acid] | 13.7 | 16.7 | 13.7 to 41.5 | particularly excellent activity | 18.2 | 19.3 | 40.4 | 14.1
2 | COc1cccc2c1C(=O)c1c(O)c3c(c(O)c1C2=O)C[C@@](O)(C(=O)CO)C[C@@H]3O[C@H]1C[C@H](N)[C@H](O)[C@H](C)O1 [ADR, adriamycin, reference compound] | 1.4 | 1.4 | – | – | 1.4 | 1.5 | 1.5 | 1.3
3 | CC1OC(O[C@H](CCCCCCCCCCCCC[C@@H](C)O)CC(=O)O)C(O)C(O)C1O (stereo in doubt) [Compound 1, 17-hydroxy-3-(3,4,5-trihydroxy-6-methyltetrahydro-2H-pyran-2-yloxy)octadecanoic acid] | 27.5 | 41.5 | 13.7 to 41.5 | – | 37.8 | 30.6 | 30.6 | 34.2
4 | CC1OC(OC2C(O[C@H](CCCCCCCCCCCCC[C@@H](C)O)CC(=O)O)OC(C)C(O)C2O)C(O)C(O)C1O (stereo partly shown) [Compound 3, 3-(4,5-dihydroxy-6-methyl-3-(3,4,5-trihydroxy-6-methyltetrahydro-2H-pyran-)2-yloxy)tetrahydro-(2H-pyran-2-yloxy)-17-hydroxyoctadecanoic acid] | 36.9 | 26.9 | 13.7 to 41.5 | – | 33.3 | 32 | 25.5 | 29.1
